The source of these data is ChEMBL document CHEMBL5252509, “In depth analysis of kinase cross screening data to identify chemical starting points for inhibition of the Nek family of kinases” (Medchemcomm, 2018).

For assay [1], the target named is T1, Serine/threonine-protein kinase Nek2 (Homo sapiens) (UniProt P51955).
T1 sequence (whole entry): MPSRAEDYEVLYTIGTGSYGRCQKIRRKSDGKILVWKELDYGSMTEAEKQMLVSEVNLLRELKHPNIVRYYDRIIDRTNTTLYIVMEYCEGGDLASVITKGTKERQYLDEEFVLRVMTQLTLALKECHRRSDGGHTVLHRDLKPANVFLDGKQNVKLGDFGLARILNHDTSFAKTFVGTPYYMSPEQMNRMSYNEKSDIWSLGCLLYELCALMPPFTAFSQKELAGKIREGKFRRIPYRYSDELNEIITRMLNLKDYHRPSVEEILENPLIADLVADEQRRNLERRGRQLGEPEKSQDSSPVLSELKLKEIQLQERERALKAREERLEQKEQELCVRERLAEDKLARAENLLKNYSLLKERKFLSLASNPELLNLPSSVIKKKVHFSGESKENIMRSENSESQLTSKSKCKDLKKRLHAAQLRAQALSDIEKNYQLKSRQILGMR
Kind of assay: Inhibition of NEK2 (unknown origin) at 10 uM relative to control.

In assay [2] the target is T2, Serine/threonine-protein kinase Nek9 (Homo sapiens) (UniProt Q8TD19).
T2 sequence (whole entry): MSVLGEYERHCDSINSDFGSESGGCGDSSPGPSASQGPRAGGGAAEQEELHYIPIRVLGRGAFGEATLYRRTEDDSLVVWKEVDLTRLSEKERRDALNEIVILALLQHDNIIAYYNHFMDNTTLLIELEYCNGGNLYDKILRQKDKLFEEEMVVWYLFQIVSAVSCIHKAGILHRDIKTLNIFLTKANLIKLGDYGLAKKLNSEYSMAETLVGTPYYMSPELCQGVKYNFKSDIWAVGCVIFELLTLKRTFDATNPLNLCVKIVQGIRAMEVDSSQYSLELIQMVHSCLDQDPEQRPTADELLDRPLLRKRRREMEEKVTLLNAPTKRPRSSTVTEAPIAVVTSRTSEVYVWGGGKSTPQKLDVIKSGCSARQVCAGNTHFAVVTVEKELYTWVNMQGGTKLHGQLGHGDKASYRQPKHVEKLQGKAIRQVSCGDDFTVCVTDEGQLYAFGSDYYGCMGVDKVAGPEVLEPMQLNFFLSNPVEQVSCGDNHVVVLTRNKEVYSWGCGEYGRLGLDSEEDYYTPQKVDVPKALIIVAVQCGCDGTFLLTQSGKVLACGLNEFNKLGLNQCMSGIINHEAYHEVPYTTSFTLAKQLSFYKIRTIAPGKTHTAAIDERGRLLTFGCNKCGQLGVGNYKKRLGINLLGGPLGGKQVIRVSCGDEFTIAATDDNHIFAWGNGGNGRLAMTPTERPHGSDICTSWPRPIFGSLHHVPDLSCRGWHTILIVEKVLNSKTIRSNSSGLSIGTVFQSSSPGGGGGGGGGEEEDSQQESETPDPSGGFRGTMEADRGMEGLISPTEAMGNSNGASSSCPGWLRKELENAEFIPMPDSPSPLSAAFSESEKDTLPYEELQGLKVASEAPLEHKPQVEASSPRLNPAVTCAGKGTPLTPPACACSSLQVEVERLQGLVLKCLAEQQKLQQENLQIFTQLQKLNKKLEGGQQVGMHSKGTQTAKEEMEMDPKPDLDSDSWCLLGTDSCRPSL
In words: Inhibition of NEK9 (unknown origin) at 10 uM relative to control.

For assay [3], the target named is Serine/threonine-protein kinase Nek7 (Homo sapiens) (UniProt Q8TDX7). Kind of assay: Inhibition of NEK7 (unknown origin) at 10 uM relative to control.
Chain of Serine/threonine-protein kinase Nek7 (Homo sapiens) (Q8TDX7 whole entry, looked up): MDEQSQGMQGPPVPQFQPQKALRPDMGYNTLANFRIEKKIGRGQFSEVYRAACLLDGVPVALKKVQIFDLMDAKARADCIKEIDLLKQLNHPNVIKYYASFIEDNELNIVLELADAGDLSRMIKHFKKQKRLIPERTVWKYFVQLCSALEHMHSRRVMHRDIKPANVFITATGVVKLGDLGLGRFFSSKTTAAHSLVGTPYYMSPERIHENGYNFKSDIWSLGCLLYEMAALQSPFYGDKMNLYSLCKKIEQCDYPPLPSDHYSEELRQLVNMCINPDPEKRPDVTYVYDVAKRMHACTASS
Assay [4] concerns the target T3, Serine/threonine-protein kinase Nek1 (Homo sapiens) (UniProt Q96PY6).
T3 sequence (whole entry): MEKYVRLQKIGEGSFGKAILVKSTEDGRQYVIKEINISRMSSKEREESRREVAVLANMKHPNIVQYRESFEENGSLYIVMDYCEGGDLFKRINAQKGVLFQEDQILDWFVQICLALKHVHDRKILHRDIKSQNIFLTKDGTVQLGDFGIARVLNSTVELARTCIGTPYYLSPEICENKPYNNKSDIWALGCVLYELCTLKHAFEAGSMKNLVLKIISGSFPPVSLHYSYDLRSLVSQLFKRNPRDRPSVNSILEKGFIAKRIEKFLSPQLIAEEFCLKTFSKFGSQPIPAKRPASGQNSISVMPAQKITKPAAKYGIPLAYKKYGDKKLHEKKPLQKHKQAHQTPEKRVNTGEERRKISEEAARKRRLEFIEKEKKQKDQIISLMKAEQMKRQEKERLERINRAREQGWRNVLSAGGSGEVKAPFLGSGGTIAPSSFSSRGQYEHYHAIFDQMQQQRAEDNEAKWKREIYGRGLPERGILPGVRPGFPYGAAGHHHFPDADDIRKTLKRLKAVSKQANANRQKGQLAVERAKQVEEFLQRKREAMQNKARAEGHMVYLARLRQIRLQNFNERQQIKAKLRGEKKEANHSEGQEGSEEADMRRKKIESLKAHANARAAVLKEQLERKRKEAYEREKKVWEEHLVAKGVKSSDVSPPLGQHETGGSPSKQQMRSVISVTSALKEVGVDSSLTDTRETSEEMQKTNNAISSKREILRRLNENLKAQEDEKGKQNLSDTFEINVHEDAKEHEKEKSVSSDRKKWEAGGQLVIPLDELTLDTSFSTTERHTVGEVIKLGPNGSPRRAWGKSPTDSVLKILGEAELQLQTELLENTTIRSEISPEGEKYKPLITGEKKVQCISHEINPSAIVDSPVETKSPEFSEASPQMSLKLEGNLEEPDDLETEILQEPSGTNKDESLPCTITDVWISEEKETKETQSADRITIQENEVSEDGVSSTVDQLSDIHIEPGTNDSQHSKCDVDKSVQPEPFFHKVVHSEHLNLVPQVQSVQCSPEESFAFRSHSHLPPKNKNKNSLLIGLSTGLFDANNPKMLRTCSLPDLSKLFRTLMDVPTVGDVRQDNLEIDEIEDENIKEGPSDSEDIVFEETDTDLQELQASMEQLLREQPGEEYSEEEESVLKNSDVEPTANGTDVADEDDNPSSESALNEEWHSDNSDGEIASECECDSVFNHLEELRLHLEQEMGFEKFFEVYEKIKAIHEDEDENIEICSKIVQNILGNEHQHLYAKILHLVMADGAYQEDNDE
Kind of assay: Inhibition of NEK1 (unknown origin) at 10 uM relative to control.

Assay [5] has as its target Serine/threonine-protein kinase Nek6 (Homo sapiens) (UniProt Q9HC98). Kind of assay: Inhibition of NEK6 (unknown origin) at 10 uM relative to control.

SMILES strings stand for the structures.

Chain of Serine/threonine-protein kinase Nek6 (Homo sapiens) (Q9HC98 whole entry): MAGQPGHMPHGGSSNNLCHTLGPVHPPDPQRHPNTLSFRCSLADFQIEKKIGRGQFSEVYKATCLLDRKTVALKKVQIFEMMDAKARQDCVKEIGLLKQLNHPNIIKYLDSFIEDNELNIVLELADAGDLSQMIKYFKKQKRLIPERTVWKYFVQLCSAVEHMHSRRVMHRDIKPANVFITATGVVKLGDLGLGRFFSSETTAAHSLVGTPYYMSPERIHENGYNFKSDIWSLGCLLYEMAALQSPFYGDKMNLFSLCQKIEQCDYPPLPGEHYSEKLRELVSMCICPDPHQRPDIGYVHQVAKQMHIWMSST

As to `Cc1ccc(NC(=O)c2ccc(NC(=O)/C=C/CN(C)C)cc2)cc1Nc1nccc(-c2cccnc2)n1`, the % control in assay [1] came to 100%; in assay [2] it was 100%; in assay [3], 20%; in assay [4], 100%; in assay [5] it was 44%.

On to `CN(C)C/C=C/C(=O)Nc1cccc(C(=O)Nc2ccc(Nc3nccc(/C(C#N)=C4\Nc5ccccc5S4)n3)cc2)c1`, for which the % control in assay [1] was found to be 99%; in assay [2], 63%; in assay [3], 100%; in assay [4], 100%; in assay [5] it was 100%.

For `Cc1cc(NC(=O)c2cccc(NC(=O)/C=C/CN(C)C)c2)ccc1Nc1nccc(-c2cccnc2)n1`, the % control was determined as 100% in assay [1]; 100% in assay [2]; 100% in assay [3]; 81% in assay [4]; 100% in assay [5].

With `Fc1cc(-c2cc[nH]/c(=N/c3ccc(-n4cnc(N5CCOCC5)n4)cc3)n2)cc(N2CCOCC2)c1`, the % control in assay [1] is 94%; in assay [2], 63%; in assay [3] it was 45%; in assay [4], 57%; in assay [5], 76%.

As to `CN(C)C/C=C/C(=O)Nc1ccc(C(=O)Nc2cccc(Nc3nccc(-c4cccnc4)n3)c2)cc1`, the % control in assay [1] was found to be 1.1%; in assay [2] it was 22%; in assay [3] it was 9.8%; in assay [4] it was 63%; in assay [5], 2.8%.

Regarding `O=C1NC(=O)/C(=C/c2ccc3nccc(-c4ccncc4)c3c2)S1`, the % control in assay [1] is 64%; in assay [2], 95%; in assay [3], 88%; in assay [4], 47%; in assay [5], 81%.

In the case of `CN(C)C/C=C/C(=O)Nc1cccc(C(=O)Nc2ccc(Nc3nccc(-c4c(-c5ccccc5)nn5ccccc45)n3)cc2)c1`, the % control in assay [1] was 93%; in assay [2] it was 100%; in assay [3] it was 100%; in assay [4] it was 100%; in assay [5] it was 100%.

Consider `CN(C)C/C=C/C(=O)Nc1cccc(C(=O)Nc2ccc(Nc3nccc(-c4cccnc4)n3)cc2)c1`, for which the % control stood at 86% in assay [1]; 48% in assay [2]; 7% in assay [3]; 77% in assay [4]; 17% in assay [5].
